The values that follow come from patent US11319324B2, “Pyrazolo-pyrrolo-pyrimidine-dione derivatives as P2X3 inhibitors” (Bayer Aktiengesellschaft, priority 2017, dated 2022).

Common to all, as to assay type: cell-based
One test has as its target T1, human P2X2/3 receptors (Homo sapiens, UniProt P56373+Q9UBL9).
T1 construct: expressed in transfected cells; host or cells: human astrocytoma 1321N1 (1312N1 [sic])
T1 sequence (P56373 1-397): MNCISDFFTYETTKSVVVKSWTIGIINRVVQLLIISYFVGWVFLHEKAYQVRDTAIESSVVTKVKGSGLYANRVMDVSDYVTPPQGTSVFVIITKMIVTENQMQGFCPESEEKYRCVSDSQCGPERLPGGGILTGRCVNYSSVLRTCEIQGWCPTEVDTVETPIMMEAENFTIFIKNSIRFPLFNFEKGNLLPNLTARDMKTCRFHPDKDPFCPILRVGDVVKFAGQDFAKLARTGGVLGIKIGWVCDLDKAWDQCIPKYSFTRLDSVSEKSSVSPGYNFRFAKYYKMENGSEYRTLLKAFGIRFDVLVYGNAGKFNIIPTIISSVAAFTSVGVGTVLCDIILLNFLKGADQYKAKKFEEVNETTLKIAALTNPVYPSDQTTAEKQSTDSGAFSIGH
T1 sequence (Q9UBL9 1-471): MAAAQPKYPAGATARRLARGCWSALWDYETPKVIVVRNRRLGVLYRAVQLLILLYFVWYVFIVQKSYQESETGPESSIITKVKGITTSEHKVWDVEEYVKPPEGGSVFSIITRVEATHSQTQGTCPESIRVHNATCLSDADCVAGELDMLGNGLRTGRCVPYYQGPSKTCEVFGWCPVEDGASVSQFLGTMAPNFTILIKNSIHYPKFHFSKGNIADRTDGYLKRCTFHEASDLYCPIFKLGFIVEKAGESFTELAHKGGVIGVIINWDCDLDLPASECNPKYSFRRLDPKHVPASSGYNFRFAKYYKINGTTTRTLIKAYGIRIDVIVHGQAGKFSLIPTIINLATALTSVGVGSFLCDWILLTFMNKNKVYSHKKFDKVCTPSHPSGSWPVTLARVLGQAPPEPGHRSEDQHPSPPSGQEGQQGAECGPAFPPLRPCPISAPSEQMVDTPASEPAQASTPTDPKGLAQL
The test can be described thus: Intracellular calcium measurement, antagonist activity at human P2X2/3 receptors (hP2X23 1321N1), Fluo8. To be noted: for IC50: column 4); 1321N1 cells, human P2X2/3, Fluo8, agonist ATP at EC50; read-out: 4) hP2X2/3 IC50 [nM] (1321N1); for hP2X23/hP2X3* Selectivity (1321N1): ratio of column 4) hP2X2/3 to column 3) hP2X3, 1321N1. How it is done: (§1) 3) And 4) Intracellular Calcium Measurement to Compare Antagonist Activity at Human P2X3 Receptors (hP2X3 1321N1) and at Human P2X2/3 Receptors (hP2X23 1321N1)
(§2) The comparison of antagonistic activity at the P2X3 versus the P2X2/3 receptor of the compounds of the invention were performed by use of recombinant cell lines. These cell lines derived originally from the human astrocytoma cell line […] (Macintyre E H, Pontén J, Vatter A E. Acta Pathol Microbiol Scand A. 1972; 80(2):267-83). The cell lines are stably transfected with the human P2X3 receptor forming homotrimeric P2X3 receptors or are co-transfected with P2X2 and P2X3 forming heterotrimeric P2X2/3 receptors. Stimulation of the receptors with the agonist ATP leads to a conformational change of the receptors and influx of extracellular calcium ions through the open ion channel. The cytoplasmatic calcium transient is detected via the calcium sensitive dye Fluo8. The strength of Fluo8 fluorescence signal corresponds to the level of receptor activation. An inhibitor would decrease the signal depending on its potency and concentration. Fluorescence was measured by use of a suitable fluorescence reader.
(§3) On the day before the assay, the cells were plated in culture medium (DMEM high glucose, 10% FCS, 1% MEM non-essential amino acids, 4 mM Glutamax) in 384-well poly-D-lysine coated microtiter plates and kept in a cell incubator (96% humidity, 5% v/v CO2, 37° C.). On the day of the assay medium was exchanged by Fluo8 containing buffer and incubated for 60 minutes. Test compounds were added at various concentrations and plates were incubated for 10 minutes. In the fluorescence reader a 3 seconds baseline measurement was performed and the agonist ATP was applied at EC50 concentration of the respective receptor during constant fluorescence measurement for 120 seconds.
(In general: Calcium assays in cells follow changes in intracellular calcium, usually with a dye or a luminescent sensor.)

The target of test [1] is T2, human P2X3 receptor (Homo sapiens, UniProt P56373).
T2 sequence (P56373 1-397): T1 sequence (P56373 1-397)
Briefly: Intracellular calcium measurement, antagonist activity at human P2X3 receptors (hP2X3 1321N1), Fluo8. Set-up: expressed in transfected cells; host or cells: human astrocytoma 1321N1 (1312N1 [sic]). The note with it: column 3); 1321N1 cells, human P2X3, Fluo8, agonist ATP at EC50. The procedure:
as §1, §2, §3

Test [2] deals with T2, human P2X3 receptor. The test can be described thus: Intracellular calcium measurement to assess antagonist activity at human P2X3 receptors (hP2X3 CHO), photina luminescence. On the set-up: expressed in transfected cells; host or cells: Chinese hamster ovary (CHO) cells. To be noted: column 2), CHO cells, agonist α,β-methylene-ATP at EC50. The procedure:
2) Intracellular Calcium Measurement to Assess Antagonist Activity at Human P2X3 Receptors (hP2X3 CHO)
The determination of antagonistic activity at the P2X3 receptor of the compounds of the invention was performed by use of a recombinant cell line. This cell line derives originally from the Chinese hamster ovary (CHO) cell line (Tjio J. H.; Puck T. T., 1958, J. Exp. Med. 108: 259-271). The cell line is stably transfected with the human P2X3 receptor and a calcium-sensitive photoprotein, mitochondrial photina, which, after reconstitution with the cofactor coelenterazine, emits light in dependence of calcium binding [Bovolenta S, Foti M, Lohmer S, Corazza S., J Biomol Screen. 2007 August; 12(5):694-704]. The strength of the photina luminescence signal corresponds to the level of receptor activation upon agonist binding. An inhibitor would decrease the signal depending on its potency and concentration. Bioluminescence was detected using a suitable luminometer [Milligan G, Marshall F, Rees S, Trends in Pharmacological Sciences 17,235-237 (1996)].
On the day before the assay, the cells were plated out in culture medium (DMEM/F12 (PAN, P04-41451), 10% FCS) in 384-well microtiter plates and kept in a cell incubator (96% humidity, 5% v/v CO2, […]). On the day of the assay medium was replaced by 2 mM Ca-tyrode buffer containing 5 μg/ml coelenterazine. Plates were incubated for 3 hours at 37° C. (96% humidity, 5% v/v CO2). […] The resulting light signal was measured immediately in the luminometer.

Turning to `CCc1cc2n(CC(=O)Nc3ccc(F)cn3)c3c(c(=O)n2n1)CN(C1CCOC1)C3=O` (racemic) [Example 71, 2-{2-ethyl-5,8-dioxo-6-[(±)-tetrahydrofuran-3-yl]-5,6,7,8-tetrahydro-4H-pyrazolo[1,5-a]pyrrolo[3,4-d]pyrimidin-4-yl}-N-(5-fluoropyridin-2-yl)acetamide], the results for the IC50 at human P2X2/3 receptors, at human P2X3 receptor [1] and on human P2X3 receptor [2] were above 23000 nM, 125 nM and 111 nM, respectively. Besides, at human P2X2/3 receptors, the “hP2X23/hP2X3* Selectivity (1321N1)” value is given as above 184.

Consider `CCc1cc2n(CC(=O)Nc3ccc(F)cn3)c3c(c(=O)n2n1)CN(CC1CCCO1)C3=O` (racemic) [Example 77, 2-{2-ethyl-5,8-dioxo-6-[(±)-tetrahydrofuran-2-ylmethyl]-5,6,7,8-tetrahydro-4H-pyrazolo[1,5-a]pyrrolo[3,4-d]pyrimidin-4-yl}-N-(5-fluoropyridin-2-yl)acetamide], for which the IC50 at human P2X2/3 receptors stood at 9050 nM; at human P2X3 receptor [1], 185 nM; on human P2X3 receptor [2], 102 nM. In addition, on human P2X2/3 receptors, the “hP2X23/hP2X3* Selectivity (1321N1)” value turned out to be 49.

As for `CC(C)N1Cc2c(n(CC(=O)Nc3ccc(F)cn3)c3cc(C4CCN(C(=O)OC(C)(C)C)C4)nn3c2=O)C1=O` (racemic) [Example 226, tert-butyl(±)-3-[4-{2-[(5-fluoropyridin-2-yl)amino]-2-oxoethyl}-5,8-dioxo-6-(propan-2-yl)-5,6,7,8-tetrahydro-4H-pyrazolo[1,5-a]pyrrolo[3,4-d]pyrimidin-2-yl]pyrrolidine-1-carboxylate], the IC50 on human P2X2/3 receptors worked out at 3050 nM; on human P2X3 receptor [1] it was 39 nM; on human P2X3 receptor [2] it was 22 nM. Besides, the “hP2X23/hP2X3* Selectivity (1321N1)” value on human P2X2/3 receptors worked out at 78.

`CC(C)N1Cc2c(n(CC(=O)Nc3ccc(F)cn3)c3cc(C4CCOC4)nn3c2=O)C1=O` (racemic) [Example 228, 2-{5,8-dioxo-2-[(±)-oxolan-3-yl]-6-(propan-2-yl)-5,6,7,8-tetrahydro-4H-pyrazolo[1,5-a]pyrrolo[3,4-d]pyrimidin-4-yl}-N-(5-fluoropyridin-2-yl)acetamide]: the IC50 is above 23500 nM on human P2X2/3 receptors, 20 nM on human P2X3 receptor [1] and 95 nM on human P2X3 receptor [2]. Further, the “hP2X23/hP2X3* Selectivity (1321N1)” value at human P2X2/3 receptors is listed as above 1175.

Regarding `CC(C)N1Cc2c(n(CC(=O)Nc3ccc(F)cn3)c3cc(C4CCNC4)nn3c2=O)C1=O.Cl` (racemic) [Example 235, 2-{5,8-dioxo-6-(propan-2-yl)-2-[(±)-pyrrolidin-3-yl]-5,6,7,8-tetrahydro-4H-pyrazolo[1,5-a]pyrrolo[3,4-d]pyrimidin-4-yl}-N-(5-fluoropyridin-2-yl)acetamide hydrochloride (1:1)], the IC50 was above 66000 nM on human P2X2/3 receptors, 340 nM at human P2X3 receptor [1] and 155 nM on human P2X3 receptor [2]. Further, the “hP2X23/hP2X3* Selectivity (1321N1)” value on human P2X2/3 receptors is above 194.

`CCc1cc2n(CC(=O)Nc3ccc(F)cn3)c3c(c(=O)n2n1)CN(C1CCNC1)C3=O.Cl` (racemic) [Example 236, 2-{2-ethyl-5,8-dioxo-6-[(±)-pyrrolidin-3-yl]-5,6,7,8-tetrahydro-4H-pyrazolo[1,5-a]pyrrolo[3,4-d]pyrimidin-4-yl}-N-(5-fluoropyridin-2-yl)acetamide hydrochloride (1:1)]: the IC50 on human P2X2/3 receptors is above 32000 nM; on human P2X3 receptor [1], 1280 nM; on human P2X3 receptor [2], 615 nM. The “hP2X23/hP2X3* Selectivity (1321N1)” value on human P2X2/3 receptors was above 25.

For `CC(C)N1Cc2c(n(CC(=O)Nc3ccc(F)cn3)c3cc(C4CCN(C)C4)nn3c2=O)C1=O` (racemic) [Example 249, N-(5-fluoropyridin-2-yl)-2-{2-[(±)-1-methylpyrrolidin-3-yl]-5,8-dioxo-6-(propan-2-yl)-5,6,7,8-tetrahydro-4H-pyrazolo[1,5-a]pyrrolo[3,4-d]pyrimidin-4-yl}acetamide], the IC50 worked out at 9200 nM on human P2X2/3 receptors, 109 nM on human P2X3 receptor [1] and 305 nM on human P2X3 receptor [2]. The “hP2X23/hP2X3* Selectivity (1321N1)” value at human P2X2/3 receptors is recorded as 85.

Take `COC[C@H](C)N1Cc2c(n(CC(=O)Nc3ccc(F)cn3)c3cc(-c4ncccc4C)nn3c2=O)C1=O` [Example 164]: the results for the IC50 on human P2X2/3 receptors and on human P2X3 receptor [2] were 3700 nM and 20 nM, respectively.

Consider `CC(C)N1Cc2c(n(CC(=O)Nc3ccc(F)cn3)c3cc(-c4ccc(F)cn4)nn3c2=O)C1=O` [Example 165], for which the IC50 on human P2X2/3 receptors came to 1460 nM; at human P2X3 receptor [2], 13 nM.

On to `CC(C)N1Cc2c(n(CC(=O)Nc3ccc(F)cn3)c3cc(C(=O)Nc4ccccn4)nn3c2=O)C1=O` [Example 201], for which the IC50 at human P2X2/3 receptors was found to be 3870 nM; at human P2X3 receptor [2], 37 nM.

For the compound `CC(C)N1Cc2c(n(CC(=O)Nc3ccc(F)cn3)c3cc(C(=O)Nc4c(F)cccc4F)nn3c2=O)C1=O` [Example 205], the results for the IC50 on human P2X2/3 receptors and on human P2X3 receptor [2] were 5000 nM and 17 nM, respectively.

Consider `CC(C)N1Cc2c(n(CC(=O)Nc3ccc(F)cn3)c3cc(C(=O)Nc4cccnc4)nn3c2=O)C1=O` [Example 207], for which the IC50 at human P2X2/3 receptors turned out to be 2680 nM; at human P2X3 receptor [2], 17 nM.

With `COC[C@H](C)N1Cc2c(n(CC(=O)Nc3ccc(F)cn3)c3cc(C(=O)N(C)c4ccccn4)nn3c2=O)C1=O` [Example 214], the IC50 on human P2X2/3 receptors amounted to 6450 nM; on human P2X3 receptor [2] it was 22 nM.

On to `COC[C@H](C)N1Cc2c(n(CC(=O)Nc3ccc(F)cn3)c3cc(C(=O)Nc4cccnn4)nn3c2=O)C1=O` [Example 216], for which the IC50 on human P2X2/3 receptors turned out to be 5600 nM; at human P2X3 receptor [2] it was 20 nM.

Take `COC[C@H](C)N1Cc2c(n(CC(=O)Nc3ccc(F)cn3)c3cc(C(=O)N(C)Cc4cccnc4)nn3c2=O)C1=O` [Example 218]: the IC50 at human P2X2/3 receptors was found to be 11500 nM; on human P2X3 receptor [2] it was 15 nM.

Turning to `O=C(Cn1c2c(c(=O)n3nc(C(=O)Nc4ccccc4F)cc13)CN(Cc1ccccn1)C2=O)Nc1ccc(F)cn1` [Example 222], the IC50 was 1350 nM at human P2X2/3 receptors and 15 nM at human P2X3 receptor [2].
